The IC50 is the concentration that gives 50% inhibition. A high value points to a need for much substance.

One assay has as its target T1, PTPN1 (PTP1B) (Homo sapiens, UniProt P18031).
T1 construct: catalytic domain (fluorogenic PTP1B catalytic domain assay kit, BPS Bioscience 79764; purified catalytic domain 1-301 for CETSA)
T1 sequence (P18031 1-301): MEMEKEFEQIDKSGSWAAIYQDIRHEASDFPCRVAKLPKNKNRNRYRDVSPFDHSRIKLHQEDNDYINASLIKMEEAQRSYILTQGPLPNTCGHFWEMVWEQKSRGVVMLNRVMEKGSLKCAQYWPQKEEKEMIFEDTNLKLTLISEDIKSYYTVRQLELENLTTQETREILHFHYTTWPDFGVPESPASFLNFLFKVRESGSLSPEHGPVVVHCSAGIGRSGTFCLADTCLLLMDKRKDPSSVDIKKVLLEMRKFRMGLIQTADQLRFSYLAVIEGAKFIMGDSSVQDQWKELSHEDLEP
Kind of assay: fluorogenic phosphatase assay with Lineweaver-Burk kinetics; also CETSA on purified catalytic domain, CD4 T cell lysates, and TPP in live PBMCs and K562 cells. Type of assay: biochemical.

A further assay addresses T2, PTPN2 (TC-PTP) (Homo sapiens, UniProt P17706).
T2 construct: catalytic domain (recombinant GST-tag TC-PTP, BPS Bioscience 30013)
T2 sequence (P17706 1-317 limits assumed): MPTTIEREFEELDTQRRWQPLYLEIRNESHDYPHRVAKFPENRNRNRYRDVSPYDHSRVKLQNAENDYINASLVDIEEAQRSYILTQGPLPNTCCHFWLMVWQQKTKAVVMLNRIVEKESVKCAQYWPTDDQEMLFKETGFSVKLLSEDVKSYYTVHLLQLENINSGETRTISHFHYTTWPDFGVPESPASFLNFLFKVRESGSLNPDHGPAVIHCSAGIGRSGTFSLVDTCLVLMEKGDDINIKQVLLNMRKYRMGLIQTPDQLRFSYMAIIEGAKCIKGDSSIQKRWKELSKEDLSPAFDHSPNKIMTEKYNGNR
Briefly: fluorogenic phosphatase assay with Lineweaver-Burk kinetics; also CETSA on purified catalytic domain (destabilization), CD4 T cell lysates, and TPP in live PBMCs and K562 cells. Type of assay: biochemical.

In the case of `O=c1c2ccccc2nnn1O` [HODHBt, 3-Hydroxy-1,2,3-benzotriazin-4(3H)-one], the values for the IC50 against PTPN1 (PTP1B) and against PTPN2 (TC-PTP) were 601 µM and 544 µM, respectively.
